Reference: the supplement of paper PMC10627819

How the values were obtained:
Conditions in all cases: main component drawn
[1] = test system: B. subtilis 168; assay: fitness (endpoint OD595 vs no drug) (fraction); higher = more growth
Summary of the method: (§1)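 Each well of a 384-well plate received 30 µl of culture at OD595 0.01, or 55 µl for S. pneumoniae. TSB, LB Lennox or CY served as media at 37 °C. OD595 was taken every 30 min for 14 h and corrected by subtracting the first reading. Fitness is the optical density at stationary-phase entry divided by the robust mean of no-drug controls, capped at 1.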

[2] = test system: S. aureus Newman; assay: as above
Summary of the method: as §1

[3] = test system: S. pneumoniae D39V; assay: as above
Summary of the method: as §1

[4] = test system: B. subtilis 168; assay: Bliss interaction score (quartile over a dose matrix) (fitness difference); higher = more antagonism (negative = synergy)
Summary of the method: (§2)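 Quartiles summarise the Bliss score over technical, biological and donor/recipient replicates, where the score is observed minus expected fitness under a product model. Expected fitness uses single-drug values inferred from combination data. Fitness is OD595 at entry into stationary phase over the plate's robust no-drug mean, capped at 1.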

[5] = test system: S. aureus DSM 20231; assay: as above
Summary of the method: as §2

[6] = test system: S. aureus Newman; assay: as above
Summary of the method: as §2

[7] = test system: S. pneumoniae D39V; assay: as above
Summary of the method: as §2
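Throughout, for Bliss interaction score (quartile over a dose matrix): first quartile when negative (synergy) and third quartile when positive (antagonism).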

CO/N=C(\C(=O)N[C@@H]1C(=O)N2C(C(=O)O)=C(COC(C)=O)CS[C@H]12)c1csc(N)n1 [Cefotaxime] + CC(C1CCC(C(O1)OC2C(CC(C(C2O)OC3C(C(C(CO3)(C)O)NC)O)N)N)N)NC [Gentamicin]
one replicate
Conditions | fitness
[1], first compound 0.00775 µg/mL, partner 0.0625 µg/mL | 0.66
[1], first compound 0.00775 µg/mL, partner 0.125 µg/mL | 0.0541
[1], first compound 0.00775 µg/mL, partner 0.25 µg/mL | 0.0723
[1], first compound 0.0155 µg/mL, partner 0.0625 µg/mL | 0.16
[1], first compound 0.0155 µg/mL, partner 0.125 µg/mL | 0.0431
[1], first compound 0.0155 µg/mL, partner 0.25 µg/mL | 0.0419
[1], first compound 0.031 µg/mL, partner 0.0625 µg/mL | 0.0439
[1], first compound 0.031 µg/mL, partner 0.125 µg/mL | 0.0439
[1], first compound 0.031 µg/mL, partner 0.25 µg/mL | 0.0452
[1], first compound 0.0625 µg/mL, partner 0.0625 µg/mL | 0.754
[1], first compound 0.0625 µg/mL, partner 0.125 µg/mL | 0.701
[1], first compound 0.0625 µg/mL, partner 0.25 µg/mL | 0.155
[1], first compound 0.125 µg/mL, partner 0.0625 µg/mL | 0.65
[1], first compound 0.125 µg/mL, partner 0.125 µg/mL | 0.449
[1], first compound 0.125 µg/mL, partner 0.25 µg/mL | 0.103
[1], first compound 0.25 µg/mL, partner 0.0625 µg/mL | 0.581
[1], first compound 0.25 µg/mL, partner 0.125 µg/mL | 0.22
[1], first compound 0.25 µg/mL, partner 0.25 µg/mL | 0.129
[2], first compound 0.039 µg/mL, partner 0.5 µg/mL | 0.79
[2], first compound 0.039 µg/mL, partner 1 µg/mL | 0.857
[2], first compound 0.039 µg/mL, partner 2 µg/mL | 0.951
[2], first compound 0.078 µg/mL, partner 0.375 µg/mL | 0.757
[2], first compound 0.078 µg/mL, partner 0.5 µg/mL | 0.821
[2], first compound 0.078 µg/mL, partner 0.75 µg/mL | 0.772
[2], first compound 0.078 µg/mL, partner 1 µg/mL | 0.8
[2], first compound 0.078 µg/mL, partner 1.5 µg/mL | 0.759
[2], first compound 0.078 µg/mL, partner 2 µg/mL | 0.977
[2], first compound 0.156 µg/mL, partner 0.375 µg/mL | 0.52
[2], first compound 0.156 µg/mL, partner 0.5 µg/mL | 0.744
[2], first compound 0.156 µg/mL, partner 0.75 µg/mL | 0.533
[2], first compound 0.156 µg/mL, partner 1 µg/mL | 0.763
[2], first compound 0.156 µg/mL, partner 1.5 µg/mL | 0.595
[2], first compound 0.156 µg/mL, partner 2 µg/mL | 0.872
[2], first compound 0.312 µg/mL, partner 0.375 µg/mL | 0.345
[2], first compound 0.312 µg/mL, partner 0.75 µg/mL | 0.389
[2], first compound 0.312 µg/mL, partner 1.5 µg/mL | 0.399
[2], first compound 0.625 µg/mL, partner 0.375 µg/mL | 0.0576
[2], first compound 0.625 µg/mL, partner 0.75 µg/mL | 0.0523
[2], first compound 0.625 µg/mL, partner 1.5 µg/mL | 0.0345
[2], first compound 1.25 µg/mL, partner 0.375 µg/mL | 0.0504
[2], first compound 1.25 µg/mL, partner 0.75 µg/mL | 0.0617
[2], first compound 1.25 µg/mL, partner 1.5 µg/mL | 0.0569
[2], first compound 2.5 µg/mL, partner 0.375 µg/mL | 0.0422
[2], first compound 2.5 µg/mL, partner 0.75 µg/mL | 0.074
[2], first compound 2.5 µg/mL, partner 1.5 µg/mL | 0.0764

Conditions | fitness
[1], first compound 0.5 µg/mL, partner 0.0625 µg/mL | 0.155
[1], first compound 0.5 µg/mL, partner 0.125 µg/mL | 0.055
[1], first compound 0.5 µg/mL, partner 0.25 µg/mL | 0.0842
[1], first compound 1 µg/mL, partner 0.0625 µg/mL | 0.0509
[1], first compound 1 µg/mL, partner 0.125 µg/mL | 0.04
[1], first compound 1 µg/mL, partner 0.25 µg/mL | 0.0527
[1], first compound 2 µg/mL, partner 0.0625 µg/mL | 0.0909
[1], first compound 2 µg/mL, partner 0.125 µg/mL | 0.0759
[1], first compound 2 µg/mL, partner 0.25 µg/mL | 0.0872
[2], first compound 0.625 µg/mL, partner 0.5 µg/mL | 0.389
[2], first compound 0.625 µg/mL, partner 1 µg/mL | 0.44
[2], first compound 0.625 µg/mL, partner 2 µg/mL | 0.397
[2], first compound 1.25 µg/mL, partner 0.5 µg/mL | 0.0594
[2], first compound 1.25 µg/mL, partner 1 µg/mL | 0.0679
[2], first compound 1.25 µg/mL, partner 2 µg/mL | 0.0372
[2], first compound 2.5 µg/mL, partner 0.5 µg/mL | 0.0199
[2], first compound 2.5 µg/mL, partner 1 µg/mL | 0.0366
[2], first compound 2.5 µg/mL, partner 2 µg/mL | 0.0507
[3], first compound 0.0018 µg/mL, partner 2 µg/mL | 0.999
[3], first compound 0.0018 µg/mL, partner 4 µg/mL | 0.988
[3], first compound 0.0018 µg/mL, partner 8 µg/mL | 0.971
[3], first compound 0.0035 µg/mL, partner 2 µg/mL | 0.967
[3], first compound 0.0035 µg/mL, partner 4 µg/mL | 0.956
[3], first compound 0.0035 µg/mL, partner 8 µg/mL | 0.917
[3], first compound 0.007 µg/mL, partner 2 µg/mL | 0.895
[3], first compound 0.007 µg/mL, partner 4 µg/mL | 0.896
[3], first compound 0.007 µg/mL, partner 8 µg/mL | 0.867

Conditions | Bliss interaction score
[4] | -0.0898
[5] | 0.0541
[6] | 0.0788
[7] | 0.0656
